Assay results reported in patent publication US9730935B2, “Targeting a non-canonical notch signaling pathway for cancer treatment” (The Board of Trustees of the Leland Stanford Junior …, priority 2013, dated 2017).

Tests used:
[1] = system: HEK 293T cells; assay: Western blot of mitochondrial fraction after CCCP treatment; type: cell-based, human
Method: (§1) Co-Immunoprecipitation and Western blot analysis. Approximately 25 adult fly thoraces were collected and homogenized in HBS buffer (210 mM Mannitol, 70 mM Sucrose, 5 mM HEPES pH 7.4, 1 mM EGTA) containing protease inhibitor (Sigma). The lysate was centrifuged at 1,300 g for 10 min, and the supernatant was collected and centrifuged again at 13,000 g for 15 min. For co-IP, the cytosolic and the mitochondrial fractions were incubated with anti-GFP conjugated protein G-agarose beads (Upstate) at 4° C. for 2 hours. Beads were washed 3× with PBS for 5 min each. Proteins were eluted and analyzed by WB as described (Wu et al., 2013). For co-IP assays using human NSC and GBM cells, soluble extracts of isolated mitochondrial fractions were incubated with a mixture of anti-human PINK1 (Abcam) and protein G-agarose beads (Upstate). The primary antibodies used were: pS505-dAKT and AKT (Cell Signaling Technology), Actin (Millipore), NICD (DSHB), NDUFS3 (MitoScience), complex IV subunit I (MitoScience), Drp-1 (L. Pallanck), Calnexin (Novus), PDE1 (MitoScience), Tom20 (Santa Cruz), KDEL (Enzo Life Science), Rab5 (Abcam), Rab7 (Abcam), rat anti-hNotch1 (1:200; DSBH). Rabbit anti-dPINK1 was generated as described (Yang et al., 2006).
(§2) Mitochondria purification. Intact mitochondria from fly heads, fly thoraces and cultured cells were purified at described previously (Wu et al., 2013). […]

[2] = system: Drosophila muscle tissue; assay: as above
Method: as §1, §2

[3] = system: Drosophila larval brain NBs (N-induced NB expansion); assay: Pharmacological treatment of N-GOF larvae: ectopic NB formation in larval brain; type: in vivo; details: Mdivi-1 5 μM in food, 0.5% DMSO vehicle control, larval brains at 120 hr ALH, PntP1>N-V5
Method: Pharmacological treatment of larvae. Mdivi-1 (Enzo Life Science) dissolved in 0.5% DMSO was mixed in instant Drosophila media at 5 μM final concentration. 0.5% DMSO alone was used as vehicle control. Embryos were collected on Mdivi-1 containing food or control food for 6 hrs at 25° C. and allowed to develop further to 120 hr ALH before larval brain dissection and immunostaining.
Immunohistochemistry. For larval brain immunostaining, larvae were dissected in Schneider's medium (Invitrogen) and fixed with 4% formaldehyde in PEM buffer (100 mM PIPES at pH 6.9, 1 mM EGTA, 1 mM MgCl2) for 23 min at room temperature. Immunohistochemistry of TH and mito-GFP in Drosophila brain was performed as described (Wu et al., 2013). […] For thoracic muscle mitochondrial morphology analysis, mito-GFP was expressed in thoracic muscle using the Mhc-Gal4 driver and indirect flight muscles were dissected in PBS and examined under fluorescence confocal microscope. […]

| SMILES | amount of mitochondrial N [1] | mitochondrial PINK1 level [1] | amount of mitochondrial N [2] | mitochondrial PINK1 level [2] | N-induced NB expansion / ectopic NB formation and brain tumor formation [3] |
| --- | --- | --- | --- | --- | --- |
| N#CC(C#N)=NNc1cccc(Cl)c1 [CCCP] | not affected | increased | not affected | increased |  |
| COc1cc(-n2c(=S)[nH]c3ccccc3c2=O)c(Cl)cc1Cl [Mdivi-1] |  |  |  |  | attenuated |
